From patent US10807952B2 (Achillion Pharmaceuticals, Inc., priority 2015, dated 2020)

Target: Human Factor D (Homo sapiens (Human), UniProt P00746)
Assay: Human Factor D assay (Z-L-Lys-SBzl / DTNB, absorbance at 405 nm)
Assay type: biochemical
Conditions: Table 3; Human Factor D 80 nM, assay of Example 13
Description: Human Factor D (purified from human serum, Complement Technology, Inc.) at 80 nM final concentration was incubated with test compound at various concentrations for 5 minutes at room temperature in 50 mM Tris, 1M NaCl, pH 7.5. A synthetic substrate Z-L-Lys-SBzl and DTNB (Ellman's reagent) were added to final concentrations of 100 μM each. […] IC50 values were calculated by nonlinear regression of complement Factor D reaction rates as a function of test compound concentration.

Human Factor D, sequence (P00746 26-253): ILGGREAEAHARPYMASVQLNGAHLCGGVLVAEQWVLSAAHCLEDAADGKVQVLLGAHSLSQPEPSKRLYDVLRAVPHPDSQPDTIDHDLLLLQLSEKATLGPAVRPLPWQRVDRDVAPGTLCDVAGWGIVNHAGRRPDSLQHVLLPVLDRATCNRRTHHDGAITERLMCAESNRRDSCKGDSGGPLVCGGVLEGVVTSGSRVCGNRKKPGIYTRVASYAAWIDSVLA

CC(=O)c1cn(CC(=O)OC(C)(C)C)c2cc(-c3cccc(NC(=O)[C@@H]4C[C@@H](F)CN4C(=O)Cn4nc(C(N)=O)c5ccccc54)c3F)ccc12 [Compound 30, tert-butyl 2-(3-acetyl-6-(3-((2S,4R)-1-(2-(3-carbamoyl-1H-indazol-1-yl)acetyl)-4-fluoropyrrolidine-2-carboxamido)-2-fluorophenyl)-1H-indol-1-yl)acetate]
IC50: 1000 to 10000 nM

CC(=O)c1cn(CC(=O)O)c2cc(-c3cccc(NC(=O)[C@@H]4C[C@@H](F)CN4C(=O)Cn4nc(C(N)=O)c5ccccc54)c3F)ccc12 [Compound 31, 2-(3-acetyl-6-(3-((2S,4R)-1-(2-(3-carbamoyl-1H-indazol-1-yl)acetyl)-4-fluoropyrrolidine-2-carboxamido)-2-fluorophenyl)-1H-indol-1-yl)acetic acid]
IC50: 1000 to 10000 nM

N#Cc1n[nH]c2cc(-c3cccc(NC(=O)[C@@H]4C[C@@H](F)CN4C(=O)Cn4nc(C(N)=O)c5ccccc54)c3F)ccc12 [Compound 32, 1-(2-((2S,4R)-2-(3-(3-cyano-1H-indazol-6-yl)-2-fluorophenyl-carbamoyl)-4-fluoropyrrolidin-1-yl)-2-oxoethyl)-1H-indazole-3-carboxamide]
IC50: < 1000 nM

NC(=O)c1nn(CC(=O)N2C[C@H](F)C[C@H]2C(=O)Nc2cccc(-c3ccccc3Cl)c2F)c2cc(C(F)(F)F)sc12 [Compound 33, 1-(2-((2S,4R)-2-(2′-chloro-2-fluorobiphenyl-3-ylcarbamoyl)-4-fluoropyrrolidin-1-yl)-2-oxoethyl)-5-(trifluoromethyl)-1H-thieno[3,2-c]pyrazole-3-carboxamide]
IC50: < 1000 nM

NC(=O)c1ccc(Cl)c(-c2cccc(NC(=O)[C@@H]3C[C@@H](F)CN3C(=O)Cn3nc(C(N)=O)c4sc(C(F)(F)F)cc43)c2F)c1 [Compound 39, 1-(2-((2S,4R)-2-((5′-Carbamoyl-2′-chloro-2-fluoro-[1,1′-biphenyl]-3-yl)carbamoyl)-4-fluoropyrrolidin-1-yl)-2-oxoethyl)-5-(trifluoromethyl)-1H-thieno[3,2-c]pyrazole-3-carboxamide]
IC50: < 1000 nM

NC(=O)c1nn(CC(=O)N2C[C@H](F)C[C@H]2C(=O)Nc2cccc(Br)n2)c2cc(S(F)(F)(F)(F)F)ccc12 [Compound 40, 1-(2-((2S,4R)-2-((6-Bromopyridin-2-yl)carbamoyl)-4-fluoropyrrolidin-1-yl)-2-oxoethyl)-6-(pentafluoro-λ^6-sulfanyl)-1H-indazole-3-carboxamide]
IC50: < 1000 nM

O=C(Nc1cccc(-c2ccccc2Cl)c1F)[C@@H]1C[C@@H](F)CN1C(=O)Cc1cccc(Br)n1 [Compound 41, (2S,4R)-1-(2-(6-bromopyridin-2-yl)acetyl)-N-(2′-chloro-2-fluorobiphenyl-3-yl)-4-fluoropyrrolidine-2-carboxamide]
IC50: 1000 to 10000 nM

O=C(Nc1cccc(-c2ccccc2Cl)c1F)[C@@H]1C[C@@H](F)CN1C(=O)Cc1cccc(Cl)c1 [Compound 42]
IC50: < 1000 nM

NC(=O)c1nn(CC(=O)N2C[C@H](F)C[C@H]2C(=O)Nc2cccc(-c3ccc4nc(F)[nH]c4c3Cl)c2F)c2ccccc12 [Compound 44, 1-(2-((2S,4R)-2-(3-(7-chloro-2-fluoro-1H-benzo[d]imidazol-6-yl)-2-fluorophenyl-carbamoyl)-4-fluoropyrrolidin-1-yl)-2-oxoethyl)-1H-indazole-3-carboxamide]
IC50: < 1000 nM

NC(=O)c1nn(CC(=O)N2C[C@H](F)C[C@H]2C(=O)Nc2cccc(-c3ccccc3Cl)c2F)c2cc(S(F)(F)(F)(F)F)ccc12 [Compound 45]
IC50: < 1000 nM

NC(=O)c1nn(CC(=O)N2C[C@H](F)C[C@H]2C(=O)Nc2cccc(C(=O)Nc3nc4cccc(Cl)c4[nH]3)c2F)c2ccccc12 [Compound 46]
IC50: < 1000 nM

NC(=O)c1nn(CC(=O)N2C[C@H](F)C[C@H]2C(=O)Nc2cccc(-c3ccc4cn[nH]c4c3Cl)c2F)c2ccccc12 [Compound 47]
IC50: < 1000 nM

COc1cc(Br)cc(CC(=O)N2C[C@H](F)C[C@H]2C(=O)Nc2cccc(-c3ccccc3Cl)c2F)c1 [Compound 48, (2S,4R)-1-(2-(3-bromo-5-methoxyphenyl)acetyl)-N-(2′-chloro-2-fluorobiphenyl-3-yl)-4-fluoropyrrolidine-2-carboxamide]
IC50: < 1000 nM

Cc1cc2c(s1)c(C(N)=O)nn2CC(=O)N1C[C@H](F)C[C@H]1C(=O)Nc1cccc(-c2cc(C(N)=O)ccc2Cl)c1F [Compound 49, 1-(2-((2S,4R)-2-(5′-carbamoyl-2′-chloro-2-fluorobiphenyl-3-ylcarbamoyl)-4-fluoropyrrolidin-1-yl)-2-oxoethyl)-5-methyl-1H-thieno[3,2-c]pyrazole-3-carboxamide]
IC50: < 1000 nM

NC(=O)c1nn(CC(=O)N2C[C@H](F)C[C@H]2C(=O)Nc2cccc(-c3cnc4nc[nH]c4c3Cl)c2F)c2ccccc12 [Compound 50, 1-(2-((2S,4R)-2-(3-(7-chloro-1H-imidazo[4,5-b]pyridin-6-yl)-2-fluorophenyl-carbamoyl)-4-fluoropyrrolidin-1-yl)-2-oxoethyl)-1H-indazole-3-carboxamide]
IC50: < 1000 nM

CC(C)(C)OC(=O)NCC(=O)c1ccc(Cl)c(-c2cccc(NC(=O)[C@@H]3C[C@@H](F)CN3C(=O)Cn3nc(C(N)=O)c4ccccc43)c2F)c1 [Compound 51, tert-butyl 2-(3′-((2S,4R)-1-(2-(3-carbamoyl-1H-indazol-1-yl)acetyl)-4-fluoropyrrolidine-2-carboxamido)-6-chloro-2′-fluorobiphenyl-3-yl)-2-oxoethylcarbamate]
IC50: < 1000 nM

NC(=O)c1nn(CC(=O)N2C[C@H](F)C[C@H]2C(=O)Nc2cccc(-c3ccc4scnc4c3)c2F)c2ccccc12 [Compound 52, 1-(2-((2S,4R)-2-(3-(benzo[d]thiazol-5-yl)-2-fluorophenyl-carbamoyl)-4-fluoropyrrolidin-1-yl)-2-oxoethyl)-1H-indazole-3-carboxamide]
IC50: < 1000 nM

NC(=O)c1cn(CC(=O)N2CCC[C@H]2C(=O)Nc2cccc(-c3ccccc3Cl)c2F)n2ccnc12 [Compound 54]
IC50: > 10000 nM

NC(=O)c1cn(CC(=O)N2C[C@H](F)C[C@H]2C(=O)Nc2cccc(Br)n2)n2ccnc12 [Compound 55, 5-(2-((2S,4R)-2-(6-bromopyridin-2-ylcarbamoyl)-4-fluoropyrrolidin-1-yl)-2-oxoethyl)-5H-imidazo[1,2-b]pyrazole-7-carboxamide]
IC50: > 10000 nM

NC(=O)c1nn(CC(=O)N2C[C@H](F)C[C@H]2C(=O)Nc2cccc(-c3ccc4ocnc4c3)c2F)c2ccccc12 [Compound 57, 1-(2-((2S,4R)-2-(3-(benzo[d]oxazol-5-yl)-2-fluorophenyl-carbamoyl)-4-fluoropyrrolidin-1-yl)-2-oxoethyl)-1H-indazole-3-carboxamide]
IC50: < 1000 nM

NC(=O)c1cn(CC(=O)N2C[C@H](F)C[C@H]2C(=O)Nc2cccc(-c3ccccc3Cl)c2F)n2ccnc12 [Compound 58, 5-(2-((2S,4R)-2-(2′-chloro-2-fluorobiphenyl-3-ylcarbamoyl)-4-fluoropyrrolidin-1-yl)-2-oxoethyl)-5H-imidazo[1,2-b]pyrazole-7-carboxamide]
IC50: 1000 to 10000 nM

NC(=O)c1nn(CC(=O)N2C[C@H](F)C[C@H]2C(=O)Nc2cccc(-c3ccc4c(c3Cl)NC(=O)CN4)c2F)c2ccccc12 [Compound 59, 1-(2-((2S,4R)-2-((3-(5-Chloro-3-oxo-1,2,3,4-tetrahydroquinoxalin-6-yl)-2-fluorophenyl)carbamoyl)-4-fluoropyrrolidin-1-yl)-2-oxoethyl)-1H-indazole-3-carboxamide]
IC50: < 1000 nM

CC(=O)n1cc(CC(=O)N2C[C@H](F)C[C@H]2C(=O)Nc2cccc(-c3ccccc3Cl)c2F)c2ccc(-c3cnc(C)nc3)cc21 [Compound 60, (2S,4R)-1-(2-(1-acetyl-6-(2-methylpyrimidin-5-yl)-1H-indol-3-yl)acetyl)-N-(2′-chloro-2-fluorobiphenyl-3-yl)-4-fluoropyrrolidine-2-carboxamide]
IC50: < 1000 nM

CC(=O)n1cc(CC(=O)N2C[C@H](F)C[C@H]2C(=O)Nc2cccc(Br)n2)c2ccc(-c3cnc(C)nc3)cc21 [Compound 61, (2S,4R)-1-(2-(1-acetyl-6-(2-methylpyrimidin-5-yl)-1H-indol-3-yl)acetyl)-N-(6-bromopyridin-2-yl)-4-fluoropyrrolidine-2-carboxamide]
IC50: < 1000 nM

NC(=O)c1nn(CC(=O)N2C[C@H](F)C[C@H]2C(=O)Nc2cccc(-c3ccc4nc(C(=O)O)[nH]c4c3Cl)c2F)c2ccccc12 [Compound 62, 6-(3-((2S,4R)-1-(2-(3-carbamoyl-1H-indazol-1-yl)acetyl)-4-fluoropyrrolidine-2-carboxamido)-2-fluorophenyl)-7-chloro-1H-benzo[d]imidazole-2-carboxylic acid]
IC50: < 1000 nM

CC(C)(C)OC(=O)N=S(C)(=O)c1cccc(-c2cccc(NC(=O)[C@@H]3C[C@@H](F)CN3C(=O)Cn3nc(C(N)=O)c4ccccc43)c2F)c1 (stereo partly drawn) [Compound 64, tert-butyl ((3′-((2S,4R)-1-(2-(3-carbamoyl-1H-indazol-1-yl)acetyl)-4-fluoropyrrolidine-2-carboxamido)-2′-fluoro-[1,1′-biphenyl]-3-yl)(methyl)(oxo)-[…]^6-sulfanylidene)-[…]^4-azanecarboxylate]
IC50: 1000 to 10000 nM

CS(=N)(=O)c1cccc(-c2cccc(NC(=O)[C@@H]3C[C@@H](F)CN3C(=O)Cn3nc(C(N)=O)c4ccccc43)c2F)c1 (stereo partly drawn) [Compound 65, 1-(2-((2S,4R)-4-fluoro-2-(2-fluoro-3′-(S-methylsulfonimidoyl)biphenyl-3-ylcarbamoyl)pyrrolidin-1-yl)-2-oxoethyl)-1H-indazole-3-carboxamide]
IC50: 1000 to 10000 nM

NC(=O)c1nn(CC(=O)N2C[C@H](F)C[C@H]2C(=O)Nc2cccc(-c3ccccc3Cl)c2F)c2cn[nH]c12 [Compound 66, 1-(2-((2S,4R)-2-(2′-chloro-2-fluorobiphenyl-3-ylcarbamoyl)-4-fluoropyrrolidin-1-yl)-2-oxoethyl)-1,4-dihydropyrazolo[4,3-c]pyrazole-3-carboxamide]
IC50: < 1000 nM
